Key:
[1] = molecular target: T1, fusion protein Tel/PDGF-R beta (PDGF beta receptor) in BaF/3 cells (Homo sapiens, UniProt P09619); experiment: Inhibition of proliferation of BaF3 Tel/PDGF cells (tyrosine kinase activity of PDGF-R beta), CellTiter-Glo, 72 h; assay type: cell-based, murine; details: 72 h incubation, cellular ATP, read-out: IC50 (concentration that inhibits 50% of the proliferation of Baf3 tel/PDGF cells)
T1 construct: the transmembrane and intracellular part of the PDGF-R beta receptor; expressed in transfected cells; host or cells: murine haematopoietic cell line BaF/3; the other entry of the earlier key: ETV6 (P41212, Transcription factor ETV6)
T1 sequence (P09619 with tags, fused parts or gaps): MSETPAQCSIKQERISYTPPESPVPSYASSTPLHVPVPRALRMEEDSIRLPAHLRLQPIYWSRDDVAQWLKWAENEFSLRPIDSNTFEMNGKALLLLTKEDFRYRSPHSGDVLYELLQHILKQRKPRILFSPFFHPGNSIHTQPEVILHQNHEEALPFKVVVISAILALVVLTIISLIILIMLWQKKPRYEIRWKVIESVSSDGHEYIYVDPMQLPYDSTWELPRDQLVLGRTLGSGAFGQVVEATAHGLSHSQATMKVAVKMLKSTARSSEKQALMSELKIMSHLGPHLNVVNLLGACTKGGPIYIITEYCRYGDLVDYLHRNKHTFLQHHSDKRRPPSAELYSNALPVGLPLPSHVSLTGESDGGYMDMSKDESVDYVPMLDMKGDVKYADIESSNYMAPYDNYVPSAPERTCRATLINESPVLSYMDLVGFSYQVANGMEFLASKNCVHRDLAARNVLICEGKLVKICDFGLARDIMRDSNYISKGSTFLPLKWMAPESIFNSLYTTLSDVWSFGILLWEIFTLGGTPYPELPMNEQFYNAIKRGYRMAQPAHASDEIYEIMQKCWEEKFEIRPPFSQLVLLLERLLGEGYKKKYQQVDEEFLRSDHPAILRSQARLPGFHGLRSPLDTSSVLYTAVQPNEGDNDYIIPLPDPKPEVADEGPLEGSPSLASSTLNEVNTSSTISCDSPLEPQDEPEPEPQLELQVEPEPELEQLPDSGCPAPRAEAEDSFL
Excerpt: (§1) The inhibitory activity with respect to PDGF or Flt-3 receptors is given by the concentration that inhibits 50% of the proliferation activity of cells Baf3 tel/PDGF or MV4-11, respectively.
Measurement of Inhibition of the Tyrosine Kinase Activity of the Receptor to PDGF Beta (PDGF-Rβ) (Baf-3 tel/PDGFRβ):
This test consists of evaluating the effects of the compounds on the tyrosine kinase activity of the PDGF beta receptor.
The inhibitory effect of the compounds according to the invention on the tyrosine kinase activity of the PDGF-R receptor was evaluated on the murine haematopoietic cell line BaF/3 transfected with a plasmid coding for the fusion protein Tel/PDGF-R beta. This fusion protein is found in chronic myeloid myelomonocytic leukaemias (CMML). It comprises the N-terminal part of the transcription factor Tel and the transmembrane and intracellular part of the PDGF-R beta receptor. This fusion protein is present in dimerized form (presence of an oligomerization domain in the N-terminal part of Tel) and accordingly leads to the constitutive activity of the kinase domain of PDGF-R beta.
(§2) The BaF3 Tel/PDGF cells are washed with phosphate buffer and seeded in 96-well plates, at a density of 5.10^4 cells/ml (100 ml per well), in RPMI 1640 containing 10% of FCS, in the presence or absence of the test compounds. After incubation for 72 h, the viable cells are quantified by measurement of cellular ATP using the CellTiter-Glo® kit (Promega, Cat G7571). The cells are treated according to the instructions given by the supplier of the kit and the luminescence is measured with a Luminoskan (Ascent, Labsystem) with the following parameters: measurement: single; integration time: 1000 ms, lag time: 5 s.
It thus appears that the compounds according to the invention have an inhibitory activity on the tyrosine kinase activity of PDGF-R beta. This activity is given by the concentration that inhibits 50% of the proliferation of Baf3 tel/PDGF cells (IC50).

[2] = molecular target: T2, Flt-3 receptor (constitutively active mutant Flt3ITD, MV4-11 cell line) (Homo sapiens, UniProt P36888, INS600HVDFREYEYD); experiment: Inhibition of proliferation of MV4-11 cells (tyrosine kinase activity of Flt-3 receptor), CellTiter-Glo, 72 h; assay type: cell-based; details: 72 h incubation, cellular ATP, read-out: IC50 (concentration that inhibits 50% of the proliferation of the MV4-11 cells)
T2 construct: bearing a constitutively active mutant Flt3ITD; endogenous in cells; host or cells: MV4-11
T2 sequence (P36888 with tags, fused parts or gaps INS600HVDFREYEYD): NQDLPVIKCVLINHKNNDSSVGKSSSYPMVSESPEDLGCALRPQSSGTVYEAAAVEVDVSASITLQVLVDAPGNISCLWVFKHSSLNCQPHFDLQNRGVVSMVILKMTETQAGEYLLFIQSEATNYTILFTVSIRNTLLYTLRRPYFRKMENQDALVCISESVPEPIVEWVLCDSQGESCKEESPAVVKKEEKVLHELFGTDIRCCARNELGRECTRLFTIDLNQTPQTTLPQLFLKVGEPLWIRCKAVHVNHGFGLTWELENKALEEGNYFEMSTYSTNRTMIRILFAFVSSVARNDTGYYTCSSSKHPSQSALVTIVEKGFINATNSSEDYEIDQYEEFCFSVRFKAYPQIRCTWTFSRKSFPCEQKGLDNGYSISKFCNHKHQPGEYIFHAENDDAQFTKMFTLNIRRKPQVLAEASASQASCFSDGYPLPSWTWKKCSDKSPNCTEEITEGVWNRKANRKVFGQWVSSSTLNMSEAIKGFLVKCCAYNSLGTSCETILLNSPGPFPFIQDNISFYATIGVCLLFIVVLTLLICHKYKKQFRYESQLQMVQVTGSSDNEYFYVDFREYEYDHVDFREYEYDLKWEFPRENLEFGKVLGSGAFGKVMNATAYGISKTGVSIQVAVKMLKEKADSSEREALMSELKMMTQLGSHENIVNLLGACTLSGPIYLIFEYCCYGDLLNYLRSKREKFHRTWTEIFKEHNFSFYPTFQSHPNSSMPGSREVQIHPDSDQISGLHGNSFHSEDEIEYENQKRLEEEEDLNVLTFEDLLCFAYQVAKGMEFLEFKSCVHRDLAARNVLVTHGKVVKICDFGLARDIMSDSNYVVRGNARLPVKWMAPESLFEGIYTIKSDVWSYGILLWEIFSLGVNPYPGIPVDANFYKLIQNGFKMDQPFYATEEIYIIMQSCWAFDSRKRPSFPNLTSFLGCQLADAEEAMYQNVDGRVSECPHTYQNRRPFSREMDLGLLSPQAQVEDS
Experimental: as §1
Measurement of Inhibition of the Tyrosine Kinase Activity of the Flt-3 Receptor
The inhibitory effect of the compounds according to the invention on the tyrosine kinase activity of the Flt-3 receptor was evaluated on the MV4-11 cell line, a line established from a leukaemia of the AML type and bearing a constitutively active mutant Flt3ITD. The inhibitory activity is correlated with inhibition of cell growth, according to the protocols described by SPIEKERMANN, K. et al., Blood, 2003, 101, (4) 1494-1504 and O'FARRELL, A.-M. et al., Blood, 2003, 101, (9) 3597-3605.
as §2, with “The MV4-11” for “The BaF3 Tel/PDGF”, “with PBS” for “with phosphate”, “of 1.10^5” for “of 5.10^4”, “(100 μl” for “(100 ml”, “h,” for “h, the”, “measured using” for “measured with”
The inhibitory activity with respect to the Flt-3 receptor is given by the concentration that inhibits 50% of the proliferation of the MV4-11 cells.

## CCn1c(N)c(-c2ncc[nH]2)c(=O)c2ccc(-c3ccc(CC(=O)Nc4ncc(C)s4)cc3)nc21 [Compound 8, 2-{4-[7-Amino-8-ethyl-6-(1H-imidazol-2-yl)-5-oxo-5,8-dihydro-[1,8]naphthyridin-2-yl]-phenyl}-N-(5-methyl-thiazol-2-yl)-acetamide]
[1]
  IC50: 2 nM
[2]
  IC50: 52 nM

## CCn1c(N)c(-c2ncc[nH]2)c(=O)c2ccc(-c3ccc(CC(=O)Nc4nnc(C5CC5)s4)cc3)nc21 [Compound 20, 2-{4-[7-Amino-8-ethyl-6-(1H-imidazol-2-yl)-5-oxo-5,8-dihydro-[1,8]naphthyridin-2-yl]-phenyl}-N-(5-cyclopropyl-[1,3,4]thiadiazol-2-yl)-acetamide]
[1]
  IC50: 8 nM
[2]
  IC50: 26 nM

## CCn1c(N)c(-c2ncc[nH]2)c(=O)c2ccc(-c3ccc(CC(=O)Nc4onc(C)c4C)cc3)nc21 [Compound 27, 2-{4-[7-Amino-8-ethyl-6-(1H-imidazol-2-yl)-5-oxo-5,8-dihydro-[1,8]naphthyridin-2-yl]-phenyl}-N-(3,4-dimethyl-isoxazol-5-yl)-acetamide]
[1]
  IC50: 2 nM
[2]
  IC50: 30 nM

## CCn1c(N)c(-c2ncc[nH]2)c(=O)c2ccc(-c3ccc(CC(=O)Nc4ncccc4C)cc3)nc21 [Compound 32, 2-{4-[7-Amino-8-ethyl-6-(1H-imidazol-2-yl)-5-oxo-5,8-dihydro-[1,8]naphthyridin-2-yl]-phenyl}-N-(3-methyl-pyridin-2-yl)-acetamide]
[2]
  IC50: 69 nM

## CCn1c(N)c(-c2ncc[nH]2)c(=O)c2ccc(-c3ccc(CC(=O)Nc4cnccc4C)cc3)nc21 [Compound 42, 2-{4-[7-Amino-8-ethyl-6-(1H-imidazol-2-yl)-5-oxo-5,8-dihydro-[1,8]naphthyridin-2-yl]-phenyl}-N-(4-methyl-pyridin-3-yl)-acetamide]
[2]
  IC50: 84 nM

## CCc1ccnc(NC(=O)Cc2ccc(-c3ccc4c(=O)c(-c5ncc[nH]5)c(N)n(CC)c4n3)cc2)c1 [Compound 43, 2-{4-[7-Amino-8-ethyl-6-(1H-imidazol-2-yl)-5-oxo-5,8-dihydro-[1,8]naphthyridin-2-yl]-phenyl}-N-(4-ethyl-pyridin-2-yl)-acetamide]
[1]
  IC50: 1.4 nM
[2]
  IC50: 19 nM

## CCn1c(N)c(-c2nc(C)c[nH]2)c(=O)c2ccc(-c3ccc(CC(=O)NCc4ccncc4)cc3)nc21 [Compound 50, 2-{4-[7-Amino-8-ethyl-6-(4-methyl-1H-imidazol-2-yl)-5-oxo-5,8-dihydro-[1,8]naphthyridin-2-yl]-phenyl}-N-pyridin-4-ylmethyl-acetamide]
[1]
  IC50: 6.6 nM
[2]
  IC50: 115 nM
